Test results as given in US11360104B2, “Microbial-based biosensors” (TRUSTEES OF BOSTON UNIVERSITY, priority 2017, dated 2022).
Read-outs that look alike come from different tables or passages of the source.

Columns and labels:
[1] = molecular target: PinR (Nocardioides simplex (Pimelobacter simplex), UniProt A0A0A1DUF2); assay: Cross-reactivity assay of steroids using sensor 3; assay type: biochemical
Protocol: The cross-reactivity of progesterone regarding the different steroids was calculated with the following equation:
Description for a typical experiment, using a molar ratio of QD/TF/DNA=1/4/18.
50 uL of the sensor (QD/TF/DNA) was then splitted in 3×9 centrifuge tubes to which 10 uL of progesterone at the desired concentration is added. […] A 384 well plate was filled with 60 uL of each solution. The fluorescence intensity was monitored on a spectrofluorimeter from 535 nm to 800 nm exciting at 400 nm, equipped with a 450 nm long-pass filter in emission.

[2] = molecular target: Pimelobacter simplex PinR (AIY20223.2; SEQ ID NO: 1), his-tagged (AIY-his6); assay: QD-FRET steroid sensor (QD-PinR + DNA-Cy5), steroid-induced TF-DNA unbinding; assay type: biochemical
Protocol: Fluorescent spectra were analyzed using MATLAB (Mathworks) and were fitted with a sum of 2 Gaussians (D=QD: FWHM=27 nm, λmax=607 nm; A=DNA-Cy5: FWHM=40 nm, λmax=669 nm). The area of each Gaussian was extracted and FD and FA are obtained respectively for the fluorescence of QD (donor) and Cy5 (acceptor).
Raw dose-response curves were obtained by plotting FA/FD as a function of the steroid concentration. Sensor output is the normalization of the fluorescent spectra of the donor and acceptor according to the following equation: […]
Non-normalized dose-response were fitted with Origin Pro 8 software with the non-linear equation: […]
The cross-reactivity of progesterone regarding the different steroids was calculated with the following equation: […]
CdSe/CdS/ZnS QDs were coated with a zwitterionic polymer bearing histamine anchoring functions (P1, SI). Once the hydrophobic QDs were transferred into H2O using a biphasic ligand exchange, his-tagged TFs were self-assembled on the QD surface to produce the QD-TF. Addition of the double stranded, Cy5-labeled TF-binding sequence completed probe assembly as the oligo binds to the TF in the absence of progesterone (PRG). The molar ratios of the QD, TF, and DNA in the sensor were controlled through the stoichiometric ratios of the mixed parts.
Two fluorescent spectra were recorded, one from the QDs and one from the Cy5 due to the FRET.
First, the DNA1 (most binding sequence) has been used to build the first biosensor, named sensor 1. For this sensor, a ratio of QD/TF/DNA of 1/4/18 was chosen. […] In order to homogenize the fluorescent signals in between batches and different sensor variations, FA/FD was normalized to give the signal output. Signal output is then plotted against PRG concentration to give a dose-response curve (FIG. 9C) This curve was fitted with the non-linear equation XX to obtain the half-maximal inhibitory concentration (IC50) (Table 13).
Description for a typical experiment, using a molar ratio of QD/TF/DNA=1/4/18. QDs in (275 uL, 0.15 uM in HEPES 1×, pH 7.6 with 1% BSA) were mixed with AIY-his6 (275 uL, 0.6 uM in HEPES 1× pH 7.6) at room temperature for 45 min. Then, the double-stranded DNA labelled with a Cy5 fluorescent probe at the 3′ and 5′ ends (275 uL, 2.7 uM in HEPES 1× pH 7.6) was added to the mixture. After 30 min, 220 uL of HEPES 1× pH 7.5 and 330 uL of 5× binding buffer (25 mM MgCl2, 25% glycerol, and 250 mg/L Invitrogen™ UltraPure™ Salmon Sperm DNA in Tris-HCl 0.1M) were added and the mixture is left 15 more min at RT.
50 uL of the sensor (QD/TF/DNA) was then splitted in 3×9 centrifuge tubes to which 10 uL of progesterone at the desired concentration is added. As such, the final concentration of QD/TF/DNA for the measurements is 25 nM/100 nM/450 nM. A 384 well plate was filled with 60 uL of each solution. The fluorescence intensity was monitored on a spectrofluorimeter from 535 nm to 800 nm exciting at 400 nm, equipped with a 450 nm long-pass filter in emission.

Sequence of PinR (A0A0A1DUF2 entry or part of it): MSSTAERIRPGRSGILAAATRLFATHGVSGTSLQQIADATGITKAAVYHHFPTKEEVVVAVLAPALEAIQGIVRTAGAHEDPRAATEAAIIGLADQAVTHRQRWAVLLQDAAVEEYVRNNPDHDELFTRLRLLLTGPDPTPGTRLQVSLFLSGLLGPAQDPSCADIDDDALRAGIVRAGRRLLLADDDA

SMILES: CC(=O)[C@H]1CC[C@H]2[C@@H]3CCC4=CC(=O)CC[C@]4(C)[C@H]3CC[C@]12C [PRG, Progesterone]
- IC50 [1]: 59 ± 4 nM
- P (slope of fit) ([1]; sensor 3, HEPES 1×): 1.31 ± 0.10
- IC50 ([2]; DNA1, QD/TF/DNA 1/4/18, read-out: X0): 460 ± 20 nM
- IC50 ([2]; DNA2, QD/TF/DNA 1/4/18, read-out: X0): 370 ± 10 nM
- IC50 ([2]; DNA 3, QD/TF/DNA 1/1/2, read-out: X0): 210 nM
- IC50 ([2]; DNA 3, QD/TF/DNA 1/1/18, read-out: X0): 350 nM
- IC50 ([2]; DNA 3, QD/TF/DNA 1/2/2, read-out: X0): 270 nM
- IC50 ([2]; DNA 3, QD/TF/DNA 1/2/18, read-out: X0): 410 nM
- IC50 ([2]; DNA 3, QD/TF/DNA 1/4/2, read-out: X0): 200 nM
- IC50 ([2]; DNA 3, QD/TF/DNA 1/4/18 (Table 11), read-out: X0): 290 nM
- IC50 ([2]; DNA3, QD/TF/DNA 1/4/18, read-out: X0): 290 ± 20 nM
- IC50 ([2]; DNA 3, QD/TF/DNA 1/10/18, read-out: X0): 390 nM
- IC50 ([2]; DNA 3, QD/TF/DNA 1/16/18, read-out: X0): 440 nM
- IC50 ([2]; DNA 4, QD/TF/DNA 1/1/4, read-out: X0): 49 ± 12 nM
- IC50 ([2]; DNA 4, QD/TF/DNA 1/1/18, read-out: X0): 74 ± 18 nM
- IC50 ([2]; DNA 4, QD/TF/DNA 1/4/9, read-out: X0): 140 ± 14 nM
- IC50 ([2]; DNA 4, QD/TF/DNA 1/4/18 (Table 12), read-out: X0): 150 ± 12 nM
- IC50 ([2]; DNA4, QD/TF/DNA 1/4/18, read-out: X0): 150 ± 10 nM
- IC50 ([2]; DNA 4, QD/TF/DNA 1/16/8, read-out: X0): 380 ± 16 nM
- IC50 ([2]; sensor 2 (DNA 2, QD/TF/DNA=1/4/18), read-out: IC50): 133 ± 9 nM
- IC50 ([2]; sensor 3 (DNA 2, QD/TF/DNA=1/1/18), read-out: IC50): 57 ± 3 nM
